For orientation: remaining activity means the signal under treatment as a percentage of the control signal. In general, IC50 refers to the concentration at which inhibition is half-maximal.

This note sets out measurements from US20240018153A1, “BENZENESULFONAMIDE DERIVATIVES AND USES THEREOF” (2692372 ONTARIO, INC., priority 2020, published 2024).

The structures appear in SMILES notation.

In assay [1] the target is EGFR (Homo sapiens (Human), UniProt P00533). The assay is described as follows: HTRF KinEASE-TK kinase assay, EGFR. It counts as biochemical. To be noted: 3 h preincubation; for remaining activity at 1 µM: 1 μM compound, read-out: % EGFR Remaining activity vs DMSO (1 μM, 3 h); for remaining activity at 10 µM: 10 μM compound, read-out: % EGFR Remaining activity vs DMSO (10 μM, 3 h). The method, then: Kinase activity was monitored using a HTRF® KinEASE-TK kit from Cisbio (62TK0PEC). The buffer used was 1× kinase buffer supplemented with 2 mM MnCl2, 5 mM MgCl2, 1 mM TCEP and 100× diluted Supplementary Enzyme Buffer. EGFR was purchased from Promega. […] Reaction with substrate was then initiated by adding biotinylated substrate and ATP. […] After 60 min of incubation, the fluorescence emission was measured at 620 nm and 665 nm. The ratio of Em 665 nm to Em 620 nm was proportional to the amount of substrate phosphorylated by the kinase.
Chain of EGFR (P00533 25-1210): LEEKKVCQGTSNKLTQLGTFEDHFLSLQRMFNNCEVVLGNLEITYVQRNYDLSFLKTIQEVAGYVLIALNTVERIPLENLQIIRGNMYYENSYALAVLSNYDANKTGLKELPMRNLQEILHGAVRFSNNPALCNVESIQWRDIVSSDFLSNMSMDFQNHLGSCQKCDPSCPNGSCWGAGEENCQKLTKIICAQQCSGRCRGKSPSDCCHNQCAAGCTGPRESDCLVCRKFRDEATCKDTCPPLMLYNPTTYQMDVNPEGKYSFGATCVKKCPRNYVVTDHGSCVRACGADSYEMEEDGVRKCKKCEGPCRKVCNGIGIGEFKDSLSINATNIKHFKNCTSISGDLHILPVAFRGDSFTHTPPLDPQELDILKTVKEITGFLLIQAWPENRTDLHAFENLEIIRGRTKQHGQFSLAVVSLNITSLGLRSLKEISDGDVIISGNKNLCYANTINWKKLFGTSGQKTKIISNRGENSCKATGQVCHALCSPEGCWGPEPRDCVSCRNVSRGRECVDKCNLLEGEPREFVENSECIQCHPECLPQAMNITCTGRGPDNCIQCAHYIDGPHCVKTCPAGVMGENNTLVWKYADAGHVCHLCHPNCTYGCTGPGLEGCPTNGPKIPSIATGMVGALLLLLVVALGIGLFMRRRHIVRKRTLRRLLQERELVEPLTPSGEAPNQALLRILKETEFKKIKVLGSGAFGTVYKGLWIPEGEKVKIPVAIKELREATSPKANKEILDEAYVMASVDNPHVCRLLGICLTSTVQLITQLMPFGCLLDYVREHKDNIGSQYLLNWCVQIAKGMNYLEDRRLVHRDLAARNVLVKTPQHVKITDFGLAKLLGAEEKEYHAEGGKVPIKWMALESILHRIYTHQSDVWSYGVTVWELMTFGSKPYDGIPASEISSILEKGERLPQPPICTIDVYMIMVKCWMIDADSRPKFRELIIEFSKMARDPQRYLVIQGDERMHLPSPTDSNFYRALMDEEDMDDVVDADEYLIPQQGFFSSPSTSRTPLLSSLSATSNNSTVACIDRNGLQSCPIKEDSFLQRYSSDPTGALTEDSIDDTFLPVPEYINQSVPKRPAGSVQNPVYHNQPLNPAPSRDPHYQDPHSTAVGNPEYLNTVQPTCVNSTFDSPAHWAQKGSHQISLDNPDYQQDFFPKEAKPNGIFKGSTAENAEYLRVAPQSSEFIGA
For initial screening, enzymes were pre incubated with compounds at 2 different concentrations (1 and 10 uM final) and 0.5% DMSO.
On the technique in general: Time-resolved FRET reads energy transfer from a long-lived donor to a nearby acceptor.

The target in assay [2] is T1, BTK (Homo sapiens (Human), UniProt Q06187). The assay is described as follows: HTRF KinEASE-TK kinase assay, BTK. It counts as biochemical. The following applies: 3 h preincubation; for remaining activity at 1 µM: 1 μM compound, read-out: % BTK Remaining activity vs DMSO (1 μM, 3 h); for remaining activity at 10 µM: 10 μM compound, read-out: % BTK Remaining activity vs DMSO (10 μM, 3 h). The method, then:
Kinase activity was monitored using a HTRF® KinEASE-TK kit from Cisbio (62TK0PEC). For BTK, the 1× kinase buffer was supplemented with 10 mM MnCl2, 5 mM MgCl2, 1 uM ATPγS, 1 mM TCEP and 100 fold diluted Supplementary Enzyme Buffer. BTK was purchased from Promega. […] Reaction with substrate was then initiated by adding biotinylated substrate and ATP and the reaction was allowed to proceed for 45 min. […] After 60 min of incubation, the fluorescence emission was measured at 620 nm and 665 nm. The ratio of Em 665 nm to Em 620 nm was proportional to the amount of substrate phosphorylated by the kinase.

The target in assay [3] is T1, BTK. The assay is described as follows: Ramos RA1 cell lysis and immunoassay, phospho-BTK (Y223) inhibition. It counts as cell-based. The arrangement: key: X: BTK bound and autophosphoration of BTK inhibited in cells. The following applies: RAMOS cells. The protocol: Ramos RA 1 cells (ATCC) were cultured in RPMI-1640 media (Wisent) supplemented with 10% heat-inactivated FBS and 1% penicillin/streptomycin. Cells were seeded in 6-well plates at 1.71×10^6 cells/well and incubated at 37° C., 5% CO2 for 16 hours. Cells were treated with compound at the indicated concentrations or DMSO alone and incubated at 37° C., 5% CO2 for 24 hours. Cell suspensions were centrifugated at 1,400-1,600 RPM for 5 minutes at room temperature and supernatants were discarded. Cell pellets were resuspended with 1× RIPA buffer (Millipore) and incubated on ice for 15 minutes. Protein lysates were extracted by centrifugating at 20,000 RPM for 20 minutes at 4° C. Proteins were separated and total BTK protein levels were quantified by Simple Western Immunoassay (ProteinSimple) using the 12-230 kDa Jess Separation Module according to the manufacturer's protocol, using a protein concentration of 0.25 μg/μl and antibodies targeting BTK (clone #D3H5, Cell Signalling) and β-Actin (clone #AC-15, Santa Cruz) diluted to 1:400 and 1:10, respectively, where the latter was used as a loading control. An equal ratio of rabbit and mouse HRP-conjugated secondary antibodies was used for detection. BTK protein levels were quantified relative to S-Actin loading levels and subsequently normalized to the DMSO control. Phosphorylated BTK levels were quantified using the Protein Normalization Assay Module for Jess (ProteinSimple) according to the manufacturer's protocol, using a protein concentration of 1.5 μg/μl and an antibody targeting pBTK (Y223) (Cell Signalling) diluted to 1:50. Phosphorylated BTK levels were quantified relative to the Protein Normalization Reagent and subsequently normalized to the DMSO control.

The target in assay [4] is BMX (Homo sapiens (Human), UniProt P51813). The assay is described as follows: HTRF KinEASE-TK kinase assay, BMX. It counts as biochemical. To be noted: for remaining activity at 1 µM: 1 uM compound; for remaining activity at 1 µM / remaining activity at 10 µM: 3 h preincubation; for remaining activity at 10 µM: 10 uM compound. The method, then:
(§1) Kinase activity was monitored using a HTRF® KinEASE-TK kit from Cisbio (62TK0PEC). […] BMX was purchased from Promega. 0.333 ng/ul BMX (3.03 nM) was preincubated in the absence or presence of inhibitor at room temperature for 3 hours. The reaction with substrate was then initiated by adding biotinylated substrate and ATP. […] Reaction was terminated by adding 31.25 nM SA-XL665 and 100 fold diluted europium labelled antibody (Eu-Ab), diluted in 1× detection buffer that contained EDTA. After 60 min of incubation, the fluorescence emission was measured at 620 nm and 665 nm. The ratio of Em 665 nm to Em 620 nm was proportional to the amount of substrate phosphorylated by the kinase.

For assay [5], the target named is JAK3 (Homo sapiens (Human), UniProt P52333). The experiment in a line: HTRF KinEASE-TK kinase assay, JAK3. The format is biochemical. To be noted: for remaining activity at 1 µM: read-out: % JAK3 Remaining activity vs DMSO (1 μM, 3 h); for remaining activity at 10 µM: read-out: % JAK3 Remaining activity vs DMSO (10 μM, 3 h); for IC50: dose response. The protocol:
as §1, with “JAK-3” for “BMX”, “0.0133” for “0.333”, “JAK3 (0.21” for “BMX (3.03”, “Reaction” for “The reaction”, “The reaction” for “Reaction”

For assay [6], the target named is FGFR4 (Homo sapiens (Human), UniProt P22455). The experiment in a line: HTRF KinEASE-TK kinase assay, FGFR4. It counts as biochemical. The following applies: for IC50: dose response; for remaining activity at 1 µM: read-out: % FGFR4 Remaining activity vs DMSO (1 μM, 3 h); for remaining activity at 10 µM: read-out: % FGFR4 Remaining activity vs DMSO (10 μM, 3 h). The protocol: as §1, with “FGFR-4” for “BMX”, “FGFR4 (5.12” for “BMX (3.03”, “Reaction” for “The reaction”, “The reaction” for “Reaction”
Chain of FGFR4 (P22455 22-802): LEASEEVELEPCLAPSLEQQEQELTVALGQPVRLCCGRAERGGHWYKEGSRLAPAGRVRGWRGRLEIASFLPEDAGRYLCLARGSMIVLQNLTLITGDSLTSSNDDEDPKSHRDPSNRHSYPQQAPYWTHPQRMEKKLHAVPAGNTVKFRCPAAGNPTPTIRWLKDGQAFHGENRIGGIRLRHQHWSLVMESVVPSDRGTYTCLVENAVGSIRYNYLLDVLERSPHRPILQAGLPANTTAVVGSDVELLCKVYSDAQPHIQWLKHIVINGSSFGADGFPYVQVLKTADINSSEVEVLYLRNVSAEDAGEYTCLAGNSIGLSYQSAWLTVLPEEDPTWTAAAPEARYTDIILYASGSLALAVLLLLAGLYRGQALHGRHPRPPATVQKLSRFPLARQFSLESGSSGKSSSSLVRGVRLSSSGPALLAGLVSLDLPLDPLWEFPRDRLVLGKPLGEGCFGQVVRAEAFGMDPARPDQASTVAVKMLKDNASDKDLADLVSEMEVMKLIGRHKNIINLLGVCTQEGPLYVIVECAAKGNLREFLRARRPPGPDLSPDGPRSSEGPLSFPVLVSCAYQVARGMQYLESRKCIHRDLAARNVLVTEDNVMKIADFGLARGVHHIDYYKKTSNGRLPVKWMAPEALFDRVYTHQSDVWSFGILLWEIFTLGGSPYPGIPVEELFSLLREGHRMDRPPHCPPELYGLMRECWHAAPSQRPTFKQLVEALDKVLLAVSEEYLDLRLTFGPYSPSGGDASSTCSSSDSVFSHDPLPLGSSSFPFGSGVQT

Chain of BMX (P51813 whole entry): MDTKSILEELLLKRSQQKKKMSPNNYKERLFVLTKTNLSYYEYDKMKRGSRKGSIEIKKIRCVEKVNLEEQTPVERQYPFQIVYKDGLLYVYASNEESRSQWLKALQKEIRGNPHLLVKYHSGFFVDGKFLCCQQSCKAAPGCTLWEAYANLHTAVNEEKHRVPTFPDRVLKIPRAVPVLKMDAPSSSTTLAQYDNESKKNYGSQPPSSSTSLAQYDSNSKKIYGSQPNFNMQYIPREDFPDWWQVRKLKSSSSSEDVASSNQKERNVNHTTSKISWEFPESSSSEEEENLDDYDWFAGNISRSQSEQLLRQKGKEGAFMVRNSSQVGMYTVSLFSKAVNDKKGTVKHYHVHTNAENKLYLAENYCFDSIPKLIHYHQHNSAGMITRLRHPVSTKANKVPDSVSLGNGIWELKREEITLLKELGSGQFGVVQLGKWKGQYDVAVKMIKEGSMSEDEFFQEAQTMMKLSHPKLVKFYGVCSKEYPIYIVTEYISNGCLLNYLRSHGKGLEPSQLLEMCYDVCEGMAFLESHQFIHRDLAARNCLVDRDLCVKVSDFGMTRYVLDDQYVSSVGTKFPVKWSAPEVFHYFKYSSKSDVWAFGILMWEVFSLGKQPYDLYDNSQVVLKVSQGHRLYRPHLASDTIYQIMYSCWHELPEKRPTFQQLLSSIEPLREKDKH
Chain of JAK3 (P52333 781-1124): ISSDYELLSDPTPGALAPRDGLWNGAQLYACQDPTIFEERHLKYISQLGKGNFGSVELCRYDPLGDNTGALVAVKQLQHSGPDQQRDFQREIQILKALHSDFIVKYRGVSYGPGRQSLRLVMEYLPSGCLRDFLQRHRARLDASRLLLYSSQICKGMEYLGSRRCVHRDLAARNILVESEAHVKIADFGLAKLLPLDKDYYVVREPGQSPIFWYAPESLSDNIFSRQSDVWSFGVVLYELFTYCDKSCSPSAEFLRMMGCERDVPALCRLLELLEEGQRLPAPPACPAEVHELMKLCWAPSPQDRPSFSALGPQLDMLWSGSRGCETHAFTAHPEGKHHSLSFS
T1 sequence (Q06187 whole entry): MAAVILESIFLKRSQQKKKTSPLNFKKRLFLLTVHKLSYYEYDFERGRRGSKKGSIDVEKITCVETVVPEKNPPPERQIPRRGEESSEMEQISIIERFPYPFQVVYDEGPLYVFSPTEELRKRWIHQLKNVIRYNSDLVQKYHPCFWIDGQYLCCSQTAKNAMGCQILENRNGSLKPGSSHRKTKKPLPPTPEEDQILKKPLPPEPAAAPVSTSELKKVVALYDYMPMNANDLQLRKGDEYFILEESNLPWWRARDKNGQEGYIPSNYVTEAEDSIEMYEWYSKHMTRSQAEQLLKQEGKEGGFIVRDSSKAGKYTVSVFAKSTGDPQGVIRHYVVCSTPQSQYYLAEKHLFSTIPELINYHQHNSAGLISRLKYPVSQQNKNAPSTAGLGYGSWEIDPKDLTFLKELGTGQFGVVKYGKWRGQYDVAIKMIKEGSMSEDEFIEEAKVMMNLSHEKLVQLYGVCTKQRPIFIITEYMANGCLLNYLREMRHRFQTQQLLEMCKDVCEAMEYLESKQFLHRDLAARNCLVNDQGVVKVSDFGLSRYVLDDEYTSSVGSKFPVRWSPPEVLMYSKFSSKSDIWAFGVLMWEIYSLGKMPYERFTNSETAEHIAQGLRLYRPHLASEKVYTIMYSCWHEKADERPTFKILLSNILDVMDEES

Consider `Nc1ncnc2c1c(-c1ccc(Oc3ccccc3)cc1)nn2C1CCN(S(=O)(=O)c2c(F)c(F)c(F)c(F)c2OC(F)F)C1` (stereo in doubt) [Compound I-26, (R)-1-(1-((2-(difluoromethoxy)-3,4,5,6-tetrafluorophenyl)sulfonyl)pyrrolidin-3-yl)-3-(4-phenoxyphenyl)-1H-pyrazolo[3,4-d]pyrimidin-4-amine], for which the remaining activity at 1 µM was greater than 90% in assay [1]; less than 50% in assay [2]; less than 50% in assay [4]; 50 to 90% in assay [5]; less than 50% in assay [6]. In addition, the remaining activity at 10 µM in assay [1] was 50 to 90%; in assay [2], less than 50%; in assay [4], less than 50%; in assay [5], 50 to 90%; in assay [6], less than 50%. Also, in assay [3] (compound concentration 1 μM), the “pBTK inhibition (RAMOS, 24 h)” value is “X”. Moreover, the IC50 in assay [4] (dose response) and in assay [6] was less than 1000 nM throughout.

Turning to `COCCOc1ccc(Nc2ncc(F)c(NCCCNS(=O)(=O)c3c(F)c(F)c(F)c(F)c3C(F)F)n2)cc1` [Compound I-52, 2-(difluoromethyl)-3,4,5,6-tetrafluoro-N-(3-((5-fluoro-2-((4-(2-methoxyethoxy)phenyl)amino)pyrimidin-4-yl)amino)propyl)benzenesulfonamide], the remaining activity at 1 µM in assay [1] was greater than 90%; in assay [2], less than 50%; in assay [4], less than 50%; in assay [5], less than 50%; in assay [6] it was greater than 90%. In addition, the remaining activity at 10 µM is 50 to 90% in assay [1]; less than 50% in assay [2]; less than 50% in assay [4]; less than 50% in assay [5]; less than 50% in assay [6]. Further, the “pBTK inhibition (RAMOS, 24 h)” value in assay [3] (compound concentration 1 μM) is recorded as “X”. The same compound registered an IC50 in assay [5] of less than 1000 nM.

`COCCOc1ccc(Nc2ncc(F)c(Nc3cccc(NS(=O)(=O)c4c(F)c(F)c(F)c(F)c4C(F)F)c3)n2)cc1` [Compound I-51, 2-(difluoromethyl)-3,4,5,6-tetrafluoro-N-(3-((5-fluoro-2-((4-(2-methoxyethoxy)phenyl)amino)pyrimidin-4-yl)amino)phenyl)benzenesulfonamide]: the remaining activity at 1 µM in assay [1] was greater than 90%; in assay [2], 50 to 90%; in assay [4], less than 50%; in assay [5], greater than 90%; in assay [6], greater than 90%. The remaining activity at 10 µM is greater than 90% in assay [1]; less than 50% in assay [2]; less than 50% in assay [4]; 50 to 90% in assay [5]; less than 50% in assay [6]. For the same compound, in assay [3] (compound concentration 10 μM), the “pBTK inhibition (RAMOS, 24 h)” value is reported as “X”.

On to `COCCOc1ccc(Nc2ncc(F)c(Nc3cccc(NS(=O)(=O)c4c(F)c(F)c(F)c(F)c4OC(F)F)c3)n2)cc1` [Compound I-54, 2-(difluoromethoxy)-3,4,5,6-tetrafluoro-N-(3-((5-fluoro-2-((4-(2-methoxyethoxy)phenyl)amino)pyrimidin-4-yl)amino)phenyl)benzenesulfonamide], for which the remaining activity at 1 µM was greater than 90% in assay [1]; less than 50% in assay [2]; less than 50% in assay [4]; less than 50% in assay [5]; less than 50% in assay [6]. The remaining activity at 10 µM in assay [1] is 50 to 90%; in assay [2] it was less than 50%; in assay [4], less than 50%; in assay [5], less than 50%; in assay [6] it was less than 50%. For the same compound, the “pBTK inhibition (RAMOS, 24 h)” value in assay [3] (compound concentration 5 μM) is reported as “X”. The IC50 in assay [5] is greater than 1000 nM; in assay [6], less than 1000 nM.

For the compound `COCCOc1ccc(Nc2ncc(F)c(Nc3cccc(NS(=O)(=O)c4c(F)c(F)c(F)c(F)c4C(F)(F)F)c3)n2)cc1` [Compound I-53, 2,3,4,5-tetrafluoro-N-(3-((5-fluoro-2-((4-(2-methoxyethoxy)phenyl)amino)pyrimidin-4-yl)amino)phenyl)-6-(trifluoromethyl)benzenesulfonamide], the remaining activity at 1 µM in assay [1] was 50 to 90%; in assay [2] it was less than 50%; in assay [4] it was less than 50%; in assay [5], less than 50%; in assay [6], less than 50%. Also, the remaining activity at 10 µM in assay [1], in assay [2], in assay [4], in assay [5] and in assay [6] was less than 50% throughout. The IC50 in assay [2] (dose response, read-out: BTK Inhibition IC50) was less than 1000 nM; in assay [5], less than 1000 nM; in assay [6], less than 1000 nM. Also, the “pBTK inhibition (RAMOS, 24 h)” value in assay [3] (compound concentration 2.5 μM) is given as “X”.
